Patent publication US9611249B2, “1H-indazole-3-carboxamide compounds as glycogen synthase kinase 3 beta inhibitors” (AZIENDE CHIMICHE RIUNITE ANGELINI FRANCESCO A.C.R.A.F. …, priority 2012, dated 2017)

Assays:
[1] = biological target: IRAK4 (h) (Homo sapiens (Human), UniProt Q9NWZ3); test: Kinase selectivity panel: IRAK4 (h); assay type: biochemical; settings: 10 μM in duplicate, read-out: % inhibition of control values
Procedure: (§1) (a) Compounds 1 and 2 were tested against a panel of 60 kinases in order to assess their selectivity. The assays were chosen taking into consideration the diversity of assay families.
(§2) Tested kinases were representative of following kinase sub-families: • protein-serine/threonine kinases; • protein-tyrosine kinases; • other kinases; and • atypical kinases.
(§3) Human recombinant kinases were incubated in the presence of specific peptide substrates plus ATP for different times (10, 15, 30, 60 or 90 minutes) at 22° C. Phosphorylated substrate was detected by LANCE or HTRF technology (CISBIO, MA, USA). The compounds were tested at 10 μM in duplicate.
(§4) The results are expressed as a percentage of inhibition of control specific activity obtained in the presence of the test compounds and are reported in the following Table 5.
(§5) (b) Compounds 3, 8, 29 and 31 were tested against the same panel of 60 kinases under the same conditions described above for compounds 1 and 2.
(§6) The results are expressed as a percent of inhibition of control specific activity obtained in the presence of the test compounds and are reported in the following Table 6.

[2] = biological target: c-Met kinase (h) (Homo sapiens (Human), UniProt P08581); test: Kinase selectivity panel: c-Met kinase (h); assay type: biochemical; settings: 10 μM in duplicate, read-out: % inhibition of control values
Procedure: as §1, §2, §3, §4, §5, §6

[3] = biological target: IGF1R kinase (h) (Homo sapiens (Human), UniProt P08069); test: Kinase selectivity panel: IGF1R kinase (h); assay type: biochemical; settings: 10 μM in duplicate, read-out: % inhibition of control values
Procedure: as §1, §2, §3, §4, §5, §6

[4] = biological target: CaMK4 (h) (Homo sapiens (Human), UniProt Q16566); test: Kinase selectivity panel: CaMK4 (h); assay type: biochemical; settings: 10 μM in duplicate, read-out: % inhibition of control values
Procedure: as §1, §2, §3, §4, §5, §6

[5] = biological target: p38delta kinase (h) (Homo sapiens (Human), UniProt O15264); test: Kinase selectivity panel: p38delta kinase (h); assay type: biochemical; settings: 10 μM in duplicate, read-out: % inhibition of control values
Procedure: as §1, §2, §3, §4, §5, §6

[6] = biological target: JAK2 (h) (Homo sapiens (Human), UniProt O60674); test: Kinase selectivity panel: JAK2 (h); assay type: biochemical; settings: 10 μM in duplicate, read-out: % inhibition of control values
Procedure: as §1, §2, §3, §4, §5, §6

[7] = biological target: CDC2/CDK1 (h) (cycB) (Homo sapiens (Human), UniProt P06493); test: Kinase selectivity panel: CDC2/CDK1 (h) (cycB); assay type: biochemical; settings: 10 μM in duplicate, read-out: % inhibition of control values
Procedure: as §1, §2, §3, §4, §5, §6

[8] = biological target: FGFR1 kinase (h) (Homo sapiens (Human), UniProt P11362); test: Kinase selectivity panel: FGFR1 kinase (h); assay type: biochemical; settings: 10 μM in duplicate, read-out: % inhibition of control values
Procedure: as §1, §2, §3, §4, §5, §6

[9] = biological target: MYT1 kinase (h) (Homo sapiens (Human), UniProt Q99640); test: Kinase selectivity panel: MYT1 kinase (h); assay type: biochemical; settings: 10 μM in duplicate, read-out: % inhibition of control values
Procedure: as §1, §2, §3, §4, §5, §6

[10] = biological target: IKKalpha (h) (Homo sapiens (Human), UniProt O15111); test: Kinase selectivity panel: IKKalpha (h); assay type: biochemical; settings: 10 μM in duplicate, read-out: % inhibition of control values
Procedure: as §1, §2, §3, §4, §5, §6

[11] = biological target: AurA/Aur2 kinase (h) (Homo sapiens (Human), UniProt O14965); test: Kinase selectivity panel: AurA/Aur2 kinase (h); assay type: biochemical; settings: 10 μM in duplicate, read-out: % inhibition of control values
Procedure: as §1, §2, §3, §4, §5, §6

[12] = biological target: Src kinase (h) (Homo sapiens (Human), UniProt P12931); test: Kinase selectivity panel: Src kinase (h); assay type: biochemical; settings: 10 μM in duplicate, read-out: % inhibition of control values
Procedure: as §1, §2, §3, §4, §5, §6

[13] = biological target: ERK2 (h) (P42mapk) (Homo sapiens (Human), UniProt P28482); test: Kinase selectivity panel: ERK2 (h) (P42mapk); assay type: biochemical; settings: 10 μM in duplicate, read-out: % inhibition of control values
Procedure: as §1, §2, §3, §4, §5, §6

[14] = biological target: JAK1 (h) (Homo sapiens (Human), UniProt P23458); test: Kinase selectivity panel: JAK1 (h); assay type: biochemical; settings: 10 μM in duplicate, read-out: % inhibition of control values
Procedure: as §1, §2, §3, §4, §5, §6

[15] = biological target: TAOK2 (TAO1) (h) (Homo sapiens (Human), UniProt Q9UL54); test: Kinase selectivity panel: TAOK2 (TAO1) (h); assay type: biochemical; settings: 10 μM in duplicate, read-out: % inhibition of control values
Procedure: as §1, §2, §3, §4, §5, §6

[16] = biological target: ERK1 (h) (Homo sapiens (Human), UniProt P27361); test: Kinase selectivity panel: ERK1 (h); assay type: biochemical; settings: 10 μM in duplicate, read-out: % inhibition of control values
Procedure: as §1, §2, §3, §4, §5, §6

[17] = biological target: HGK (h) (MAP4K4) (Homo sapiens (Human), UniProt O95819); test: Kinase selectivity panel: HGK (h) (MAP4K4); assay type: biochemical; settings: 10 μM in duplicate, read-out: % inhibition of control values
Procedure: as §1, §2, §3, §4, §5, §6

[18] = biological target: PDK1 (h) (Homo sapiens (Human), UniProt O15530); test: Kinase selectivity panel: PDK1 (h); assay type: biochemical; settings: 10 μM in duplicate, read-out: % inhibition of control values
Procedure: as §1, §2, §3, §4, §5, §6

[19] = biological target: MNK2 (h) (Homo sapiens (Human), UniProt Q9HBH9); test: Kinase selectivity panel: MNK2 (h); assay type: biochemical; settings: 10 μM in duplicate, read-out: % inhibition of control values
Procedure: as §1, §2, §3, §4, §5, §6

[20] = biological target: PKA (h) (Homo sapiens (Human), UniProt P17612); test: Kinase selectivity panel: PKA (h); assay type: biochemical; settings: 10 μM in duplicate, read-out: % inhibition of control values
Procedure: as §1, §2, §3, §4, §5, §6

[21] = biological target: human GSK-3β (Homo sapiens (Human), UniProt P49841); test: Activity on human GSK-3β, LANCE substrate phosphorylation assay; assay type: biochemical; settings: for inhibition at 10 µM: in duplicate, first screening assay; for IC50: compounds 1 to 15, LANCE assay, five concentrations 100 μM to 10 nM
Procedure: Activity on human GSK-3β was assessed using the following methods (according to Meijer et al., Chem. Biol., 2003-10:1255-1266).
In a first screening assay, compounds were tested in duplicate at a concentration of 10 μM.
Human recombinant enzyme GSK-3β was incubated for 90 minutes at 22° C. in the presence of compounds or vehicle in a reaction buffer containing ATP plus 100 nM unphosphorylated specific substrate peptide (Ulight-[…] K-amide). Substrate phosphorylation was measured by LANCE technology (PerkinElmer, Conn., USA).
In a second assay, the same compounds were assayed at five concentrations ranging from 100 μM to 10 nM with ten-fold dilutions in duplicate.
The IC50 values (concentration causing a half maximal inhibition of control specific activity), reported in table 4, were determined by non-linear regression analysis of the inhibition curves generated with mean replicate values using Hill equation curve fitting.

[22] = biological target: DAPK1 (h) (Homo sapiens (Human), UniProt P53355); test: Kinase selectivity panel: DAPK1 (h); assay type: biochemical; settings: 10 μM in duplicate, read-out: % inhibition of control values
Procedure: as §1, §2, §3, §4, §5, §6

[23] = system: AMPKalpha; test: Kinase selectivity panel: AMPKalpha; assay type: biochemical, human; settings: 10 μM in duplicate
Procedure: as §1, §2, §3, §4, §5, §6

[24] = biological target: MEK1/MAP2K1 (h) (Homo sapiens (Human), UniProt Q02750); test: Kinase selectivity panel: MEK1/MAP2K1 (h); assay type: biochemical; settings: 10 μM in duplicate, read-out: % inhibition of control values
Procedure: as §1, §2, §3, §4, §5, §6

[25] = biological target: mTOR kinase (h) (FRAP1) (Homo sapiens (Human), UniProt P42345); test: Kinase selectivity panel: mTOR kinase (h) (FRAP1); assay type: biochemical; settings: 10 μM in duplicate, read-out: % inhibition of control values
Procedure: as §1, §2, §3, §4, §5, §6

[26] = biological target: MSK1 (h) (Homo sapiens (Human), UniProt O75582); test: Kinase selectivity panel: MSK1 (h); assay type: biochemical; settings: 10 μM in duplicate, read-out: % inhibition of control values
Procedure: as §1, §2, §3, §4, §5, §6

[27] = biological target: p38gamma kinase (h) (Homo sapiens (Human), UniProt P53778); test: Kinase selectivity panel: p38gamma kinase (h); assay type: biochemical; settings: 10 μM in duplicate, read-out: % inhibition of control values
Procedure: as §1, §2, §3, §4, §5, §6

[28] = biological target: smMLCK (h) (MYLK) (Homo sapiens (Human), UniProt Q15746); test: Kinase selectivity panel: smMLCK (h) (MYLK); assay type: biochemical; settings: 10 μM in duplicate, read-out: % inhibition of control values
Procedure: as §1, §2, §3, §4, §5, §6

[29] = biological target: NEK1 (h) (Homo sapiens (Human), UniProt Q96PY6); test: Kinase selectivity panel: NEK1 (h); assay type: biochemical; settings: 10 μM in duplicate, read-out: % inhibition of control values
Procedure: as §1, §2, §3, §4, §5, §6

Sequence of FGFR1 kinase (h) (P11362 22-822): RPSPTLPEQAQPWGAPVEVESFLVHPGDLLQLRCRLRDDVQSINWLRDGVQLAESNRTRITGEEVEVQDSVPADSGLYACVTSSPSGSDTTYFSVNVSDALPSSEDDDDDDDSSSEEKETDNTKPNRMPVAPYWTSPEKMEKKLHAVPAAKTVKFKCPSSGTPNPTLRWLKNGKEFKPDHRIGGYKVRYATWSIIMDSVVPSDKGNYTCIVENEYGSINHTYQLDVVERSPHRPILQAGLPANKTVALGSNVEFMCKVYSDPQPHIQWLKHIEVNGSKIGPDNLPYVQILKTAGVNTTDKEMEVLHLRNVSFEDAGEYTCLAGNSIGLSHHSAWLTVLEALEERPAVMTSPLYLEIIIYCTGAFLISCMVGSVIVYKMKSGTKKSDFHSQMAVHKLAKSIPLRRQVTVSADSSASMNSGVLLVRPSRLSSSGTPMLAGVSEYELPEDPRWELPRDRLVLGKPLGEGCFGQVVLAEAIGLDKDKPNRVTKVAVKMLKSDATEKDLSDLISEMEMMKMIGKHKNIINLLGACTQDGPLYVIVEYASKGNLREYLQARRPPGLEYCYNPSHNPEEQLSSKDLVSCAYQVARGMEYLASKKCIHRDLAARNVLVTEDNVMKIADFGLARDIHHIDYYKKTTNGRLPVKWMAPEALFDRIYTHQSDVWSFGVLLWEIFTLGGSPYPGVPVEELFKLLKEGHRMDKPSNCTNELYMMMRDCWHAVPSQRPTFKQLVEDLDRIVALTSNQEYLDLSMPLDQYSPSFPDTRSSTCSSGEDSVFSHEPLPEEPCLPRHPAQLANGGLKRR
Sequence of HGK (h) (MAP4K4) (O95819 whole entry): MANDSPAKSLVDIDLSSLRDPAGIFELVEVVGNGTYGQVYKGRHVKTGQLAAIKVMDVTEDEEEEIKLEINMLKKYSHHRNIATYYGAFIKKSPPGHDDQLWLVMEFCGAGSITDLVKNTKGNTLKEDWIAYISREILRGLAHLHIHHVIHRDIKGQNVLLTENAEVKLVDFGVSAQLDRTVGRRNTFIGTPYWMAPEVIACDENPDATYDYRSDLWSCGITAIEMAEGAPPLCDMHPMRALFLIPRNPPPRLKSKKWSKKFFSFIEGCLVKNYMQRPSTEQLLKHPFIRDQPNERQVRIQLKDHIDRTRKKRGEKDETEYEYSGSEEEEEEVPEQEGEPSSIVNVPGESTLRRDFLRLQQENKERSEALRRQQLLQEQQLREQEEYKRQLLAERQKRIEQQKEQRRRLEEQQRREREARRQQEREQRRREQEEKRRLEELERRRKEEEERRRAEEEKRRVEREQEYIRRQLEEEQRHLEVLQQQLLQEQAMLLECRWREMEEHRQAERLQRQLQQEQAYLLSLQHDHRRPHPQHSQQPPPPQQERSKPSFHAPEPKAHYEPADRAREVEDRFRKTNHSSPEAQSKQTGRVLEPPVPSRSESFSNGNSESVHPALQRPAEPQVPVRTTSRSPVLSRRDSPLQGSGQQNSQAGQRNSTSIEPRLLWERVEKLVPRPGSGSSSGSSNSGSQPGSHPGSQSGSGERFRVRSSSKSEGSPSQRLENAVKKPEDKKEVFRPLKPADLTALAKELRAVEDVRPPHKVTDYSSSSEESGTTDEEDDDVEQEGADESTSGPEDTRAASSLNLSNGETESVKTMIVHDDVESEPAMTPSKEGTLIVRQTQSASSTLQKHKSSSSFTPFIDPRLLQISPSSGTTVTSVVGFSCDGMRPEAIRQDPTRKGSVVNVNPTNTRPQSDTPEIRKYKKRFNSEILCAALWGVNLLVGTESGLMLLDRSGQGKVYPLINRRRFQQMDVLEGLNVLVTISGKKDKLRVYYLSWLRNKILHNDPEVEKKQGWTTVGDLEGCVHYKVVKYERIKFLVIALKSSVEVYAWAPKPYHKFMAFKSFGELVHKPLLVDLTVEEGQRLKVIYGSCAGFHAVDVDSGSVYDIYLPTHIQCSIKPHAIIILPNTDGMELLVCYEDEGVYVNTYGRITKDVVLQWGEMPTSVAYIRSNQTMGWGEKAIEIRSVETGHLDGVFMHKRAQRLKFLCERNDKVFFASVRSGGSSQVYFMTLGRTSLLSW
Sequence of ERK2 (h) (P42mapk) (P28482 whole entry): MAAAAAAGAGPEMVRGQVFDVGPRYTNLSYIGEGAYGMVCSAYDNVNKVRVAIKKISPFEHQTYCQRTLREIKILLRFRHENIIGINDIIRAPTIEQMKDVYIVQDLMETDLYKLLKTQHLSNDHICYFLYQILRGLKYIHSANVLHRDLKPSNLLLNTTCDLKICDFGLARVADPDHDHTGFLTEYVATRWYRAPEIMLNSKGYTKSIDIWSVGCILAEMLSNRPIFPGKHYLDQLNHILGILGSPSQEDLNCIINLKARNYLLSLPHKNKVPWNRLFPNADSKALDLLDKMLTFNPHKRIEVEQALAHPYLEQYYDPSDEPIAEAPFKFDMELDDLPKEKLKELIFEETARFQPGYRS
Sequence of c-Met kinase (h) (P08581 25-1390): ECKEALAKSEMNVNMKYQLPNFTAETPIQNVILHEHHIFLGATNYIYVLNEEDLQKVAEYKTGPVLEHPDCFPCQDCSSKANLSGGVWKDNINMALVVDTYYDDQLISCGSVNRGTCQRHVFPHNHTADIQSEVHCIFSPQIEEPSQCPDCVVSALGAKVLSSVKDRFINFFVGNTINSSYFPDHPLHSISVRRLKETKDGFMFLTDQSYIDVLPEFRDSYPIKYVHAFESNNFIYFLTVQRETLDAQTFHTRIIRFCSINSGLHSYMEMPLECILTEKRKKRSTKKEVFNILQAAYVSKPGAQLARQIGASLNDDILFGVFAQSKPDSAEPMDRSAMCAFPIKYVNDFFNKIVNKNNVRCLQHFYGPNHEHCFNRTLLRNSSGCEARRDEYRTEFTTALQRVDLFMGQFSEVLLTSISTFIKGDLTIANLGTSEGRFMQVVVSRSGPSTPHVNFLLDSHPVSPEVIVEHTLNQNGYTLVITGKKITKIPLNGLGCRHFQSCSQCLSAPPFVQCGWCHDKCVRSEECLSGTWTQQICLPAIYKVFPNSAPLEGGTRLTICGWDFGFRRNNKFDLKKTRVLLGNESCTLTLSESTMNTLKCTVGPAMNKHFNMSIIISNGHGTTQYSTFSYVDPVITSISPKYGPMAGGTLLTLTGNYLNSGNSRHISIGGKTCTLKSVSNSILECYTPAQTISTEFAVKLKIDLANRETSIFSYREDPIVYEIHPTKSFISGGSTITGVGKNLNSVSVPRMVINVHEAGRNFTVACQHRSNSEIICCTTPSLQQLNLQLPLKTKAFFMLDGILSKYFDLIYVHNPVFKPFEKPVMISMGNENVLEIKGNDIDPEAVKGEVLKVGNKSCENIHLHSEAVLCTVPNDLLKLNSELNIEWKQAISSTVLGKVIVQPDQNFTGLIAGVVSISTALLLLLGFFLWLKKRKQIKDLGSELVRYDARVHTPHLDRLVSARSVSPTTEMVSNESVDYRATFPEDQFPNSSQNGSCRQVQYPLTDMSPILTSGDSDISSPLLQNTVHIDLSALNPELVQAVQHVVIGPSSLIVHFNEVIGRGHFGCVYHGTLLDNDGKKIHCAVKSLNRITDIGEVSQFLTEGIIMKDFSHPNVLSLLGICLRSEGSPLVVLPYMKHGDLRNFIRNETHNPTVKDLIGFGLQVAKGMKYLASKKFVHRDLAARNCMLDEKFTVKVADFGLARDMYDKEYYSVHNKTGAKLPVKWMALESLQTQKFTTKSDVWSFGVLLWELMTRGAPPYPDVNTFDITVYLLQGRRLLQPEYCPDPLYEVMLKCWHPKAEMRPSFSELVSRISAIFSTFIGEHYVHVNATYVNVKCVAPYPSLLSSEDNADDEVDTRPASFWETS
Sequence of JAK1 (h) (P23458 whole entry): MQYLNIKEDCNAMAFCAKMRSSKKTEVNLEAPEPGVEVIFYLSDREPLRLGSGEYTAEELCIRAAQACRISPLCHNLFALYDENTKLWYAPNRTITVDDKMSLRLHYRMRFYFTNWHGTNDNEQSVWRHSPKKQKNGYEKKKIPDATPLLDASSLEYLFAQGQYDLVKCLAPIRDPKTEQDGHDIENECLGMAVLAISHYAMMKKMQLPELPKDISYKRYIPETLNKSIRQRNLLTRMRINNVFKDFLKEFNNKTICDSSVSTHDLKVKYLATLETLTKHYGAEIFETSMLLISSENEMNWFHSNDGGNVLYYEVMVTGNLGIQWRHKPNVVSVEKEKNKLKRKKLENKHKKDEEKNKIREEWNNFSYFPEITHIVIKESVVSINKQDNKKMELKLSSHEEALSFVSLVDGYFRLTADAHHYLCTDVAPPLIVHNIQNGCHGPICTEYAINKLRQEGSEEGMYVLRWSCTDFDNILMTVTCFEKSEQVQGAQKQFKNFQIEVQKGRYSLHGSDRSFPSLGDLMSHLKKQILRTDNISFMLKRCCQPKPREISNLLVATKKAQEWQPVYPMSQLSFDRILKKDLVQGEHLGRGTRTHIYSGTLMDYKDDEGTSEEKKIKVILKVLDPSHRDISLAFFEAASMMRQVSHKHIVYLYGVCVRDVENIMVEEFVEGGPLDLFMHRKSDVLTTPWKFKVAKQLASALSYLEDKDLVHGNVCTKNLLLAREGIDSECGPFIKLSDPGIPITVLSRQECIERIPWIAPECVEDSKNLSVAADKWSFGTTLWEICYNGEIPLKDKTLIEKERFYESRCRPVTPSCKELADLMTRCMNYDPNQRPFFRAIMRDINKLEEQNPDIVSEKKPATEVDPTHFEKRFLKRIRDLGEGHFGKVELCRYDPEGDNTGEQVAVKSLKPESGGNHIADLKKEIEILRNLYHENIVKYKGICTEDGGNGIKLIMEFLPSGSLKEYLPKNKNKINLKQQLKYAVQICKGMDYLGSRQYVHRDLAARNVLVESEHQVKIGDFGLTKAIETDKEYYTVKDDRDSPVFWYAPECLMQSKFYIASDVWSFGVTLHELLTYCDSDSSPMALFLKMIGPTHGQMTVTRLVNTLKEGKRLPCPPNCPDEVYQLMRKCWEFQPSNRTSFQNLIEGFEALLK

inhibition at 10 µM [1]	inhibition at 10 µM [2]	inhibition at 10 µM [3]	inhibition at 10 µM [4]	inhibition at 10 µM [5]	inhibition at 10 µM [6]	inhibition at 10 µM [7]	inhibition at 10 µM [8]	inhibition at 10 µM [9]	inhibition at 10 µM [10]	inhibition at 10 µM [11]	inhibition at 10 µM [12]	inhibition at 10 µM [13]	inhibition at 10 µM [14]	inhibition at 10 µM [15]	inhibition at 10 µM [16]	inhibition at 10 µM [17]	inhibition at 10 µM [18]	inhibition at 10 µM [19]	inhibition at 10 µM [20]	Compound	also measured
0%	0%	0%	15%	0%	0%	8%	0%	2%	0%	4%	0%	34%	4%	0%	19%	3%	0%	3%	0%	COc1ccc2[nH]nc(C(=O)NCC3CCN(CCC(=O)O)CC3)c2c1 [Compound 3]	inhibition at 10 µM [21]: 94%; inhibition at 10 µM [22]: 3%
8%	0%	0%	0%	0%	0%	0%	0%	1%	0%	1%	6%	46%	0%	26%	15%	23%	6%	0%	2%	COCCN1CCC(CNC(=O)c2n[nH]c3ccc(OC)cc23)CC1 [Compound 2, 5-methoxy-N-{[1-(2-methoxyethyl)-piperidin-4-yl]methyl}-1H-indazole-3-carboxamide]	% inhibition of control values [23]: 19%; inhibition at 10 µM [24]: 9%; inhibition at 10 µM [25]: 2%; inhibition at 10 µM [26]: 16%; inhibition at 10 µM [27]: 0%; inhibition at 10 µM [28]: 8%; inhibition at 10 µM [29]: 0%; inhibition at 10 µM [21]: 85%; IC50 [21]: 870 nM; inhibition at 10 µM [22]: 12%
0%	3%	0%	0%	0%	0%	7%	0%	0%	0%	7%	1%	58%	0%	3%	20%	8%	6%	0%	0%	COc1ccc2[nH]nc(C(=O)NCC3CCN(CC(=O)O)CC3)c2c1 [Compound 1, [4-({[(5-methoxy-1H-indazol-3-yl)-carbonyl]amino}methyl)piperidin-1-yl]acetic acid]	% inhibition of control values [23]: 16%; inhibition at 10 µM [24]: 24%; inhibition at 10 µM [25]: 2%; inhibition at 10 µM [26]: 7%; inhibition at 10 µM [27]: 0%; inhibition at 10 µM [28]: 0%; inhibition at 10 µM [29]: 0%; inhibition at 10 µM [21]: 92%; IC50 [21]: 670 nM; inhibition at 10 µM [22]: 22%
0%	7%	3%	4%	18%	23%	80%	8%	20%	1%	10%	0%	74%	7%	79%	66%	72%	0%	4%	0%	COCCN1CCC(CNC(=O)c2n[nH]c3ccc(-c4cccc(F)c4F)cc23)CC1 [Compound 8, 5-(2,3-difluorophenyl)-N-{[1-(2-methoxyethyl)piperidin-4-yl]methyl}-1H-indazole-3-carboxamide]	% inhibition of control values [23]: 68%; inhibition at 10 µM [22]: 47%
